US20260124309A1, “STAT6 DEGRADERS AND USES THEREOF” (Kymera Therapeutics, Inc., priority 2023, published 2026)

Legend:
[1] = molecular target: T1, biotinylated truncated STAT6 (123-632)-avi (Homo sapiens, UniProt P42226); test: STAT6 HTRF binding assay; details: 0.15 nM biotinylated truncated STAT6 (123-632)-avi, 20 nM fluorescein-labeled probe
T1 construct: biotinylated truncated STAT6 (123-632)-avi purified from E. coli; made in house; host or cells: E. coli
T1 sequence (P42226 123-632 limits assumed): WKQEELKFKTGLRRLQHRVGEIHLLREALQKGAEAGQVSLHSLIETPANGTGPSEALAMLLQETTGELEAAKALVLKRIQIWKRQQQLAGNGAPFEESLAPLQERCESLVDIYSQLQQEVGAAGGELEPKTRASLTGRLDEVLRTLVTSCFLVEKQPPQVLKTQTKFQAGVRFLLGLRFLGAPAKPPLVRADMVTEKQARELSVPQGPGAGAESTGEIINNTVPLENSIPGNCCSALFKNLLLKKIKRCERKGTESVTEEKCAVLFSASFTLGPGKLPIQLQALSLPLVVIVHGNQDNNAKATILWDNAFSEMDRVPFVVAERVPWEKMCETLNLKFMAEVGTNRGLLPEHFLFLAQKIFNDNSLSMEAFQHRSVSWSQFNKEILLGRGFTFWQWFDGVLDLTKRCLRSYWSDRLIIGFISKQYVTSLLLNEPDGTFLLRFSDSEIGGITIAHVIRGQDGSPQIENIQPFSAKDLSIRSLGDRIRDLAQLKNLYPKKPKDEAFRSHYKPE
Method: HTRF binding assays were performed using 0.15 nM biotinylated truncated STAT6 (123-632)-avi purified from E. coli, 1× Streptavidin-terbium (CisBio) prepared by mixing SA-Tb in PPI detection buffer (CisBio), 20 nM proprietary fluorescein-labeled probe, and test compounds in assay buffer consisting of 50 mM HEPES-Na pH 7.5, 100 mM NaCl, 1 mM EDTA, 2 mM DTT, 0.1% Tween-20 with a final volume of 20 uL. Compound stocks were dissolved at 10 mM in 100% DMSO and 11 point titration with 3 fold serial dilution was performed in white, opaque 384 well microplates. Reaction plates were incubated at room temperature for 30 minutes. Plates were centrifuged at low rpm for 5 mins, and the ratio of fluorescence intensities were measured at emission wavelengths for fluorescein acceptor (520 nm) and terbium donor (495 nm) on Envision Plate reader. % Inhibition was calculated from the 520/495 ratio generated by using proprietary positive control compound for 100% inhibition and DMSO only reactions for 0% inhibition. Data was processed and dose response curves were generated using GraphPad Prism to determine the concentration required for inhibiting 50% of the HTRF signal (IC50).
The letter codes for IC50 (μM) include: A (<0.1 μM); B (0.1-1 μM); C (>1-10 μM); D (>10-100 μM); E (>100 μM); and F (not tested).

STAT6 = molecular target: T2, STAT6 (Homo sapiens, UniProt P42226); test: STAT6 MSD degradation in A549 cells; type: cell-based; details: 24 h
T2 construct: endogenous in cells; host or cells: A549
T2 sequence (P42226 1-847): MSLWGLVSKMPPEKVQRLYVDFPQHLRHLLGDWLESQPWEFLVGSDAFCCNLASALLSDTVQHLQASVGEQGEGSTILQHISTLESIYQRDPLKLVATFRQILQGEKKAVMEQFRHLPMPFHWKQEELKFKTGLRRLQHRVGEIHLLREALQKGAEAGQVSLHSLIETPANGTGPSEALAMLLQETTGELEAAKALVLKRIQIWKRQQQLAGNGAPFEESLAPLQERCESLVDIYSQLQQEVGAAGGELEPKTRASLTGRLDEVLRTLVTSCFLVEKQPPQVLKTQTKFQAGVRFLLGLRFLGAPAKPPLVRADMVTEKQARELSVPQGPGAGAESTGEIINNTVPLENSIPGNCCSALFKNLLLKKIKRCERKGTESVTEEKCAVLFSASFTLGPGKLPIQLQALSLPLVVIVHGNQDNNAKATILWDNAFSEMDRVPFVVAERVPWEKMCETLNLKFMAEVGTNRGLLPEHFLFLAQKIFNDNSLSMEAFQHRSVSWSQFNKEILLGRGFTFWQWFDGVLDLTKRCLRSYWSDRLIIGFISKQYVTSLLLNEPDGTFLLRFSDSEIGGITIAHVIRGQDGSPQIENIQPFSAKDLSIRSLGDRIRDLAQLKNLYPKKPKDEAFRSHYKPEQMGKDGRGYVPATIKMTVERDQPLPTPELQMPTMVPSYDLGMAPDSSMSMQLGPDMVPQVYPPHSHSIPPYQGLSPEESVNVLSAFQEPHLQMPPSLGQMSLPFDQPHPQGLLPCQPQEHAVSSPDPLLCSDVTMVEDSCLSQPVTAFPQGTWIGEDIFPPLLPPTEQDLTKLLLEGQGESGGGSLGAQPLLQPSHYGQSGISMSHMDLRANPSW
Method: Degradation of STAT6 in cells was quantitatively measured using Meso Scale Discovery (MSD) technology. A549 cells were seeded in 96-well plates with a density of 1.5×10e4 to 5×10e5 cells per well in 100 μl fresh media. Compounds were then added to the assay plates with a final top concentration of up to 10 uM in a 1:3 dilution series with total of 9 doses. The assay plates were then incubated for 4 to 24 hours at 37° C. under 5% CO2. The assay plates were then centrifuged for 5 minutes and the cell pellets were treated with 100 μl/well RIPA lysis buffer (Boston Bioproducts, BP-115D) with protease and phosphatase inhibitors (Roche, 05892791001 and 04906837001). To prepare the MSD assay plates (MSD, L15XA), the plates were coated with the capture antibody (Abnova, H00006778) in PBS, at 40 μl/well. The plates were then incubated overnight at 4° C., washed 1 time with 150 μl/well TBST buffer (Cell Signaling Technology, #9997S) and blocked with 150 μl/well blocking buffer (MSD, R93BA-4). Cell lysates were then added to MSD assay plates and the plates were incubated at room temperature for 1 hour. The plates were then washed 3 times with 150 μl/well TBST buffer and 25 μl/well primary detection antibody (Cell Signaling Technology, #5397S). The assay plates were then incubated at room temperature for 1 hour, washed 3 times with 150 μl/well TBST buffer, and 25 μl/well secondary detection antibody, SULFO-TAG anti-rabbit antibody (MSD, R32AB-1) were added. The assay plates were then incubated at room temperature for 1 hour, washed 3 times with 150 μl/well TBST buffer, and 150 μl/well MSD reading buffer (MSD, R92TC-2) were added. The plates were then analyzed by an MSD reader. The data was analyzed by GraphPad Prism and the dose dependent STAT6 degradation was fit using the four-parameter inhibitor vs. response nonlinear regression.
The letter codes for DC50 (nM) include: A (<1 nM); B (1-10 nM); C (>10-100 nM); D (>100-1000 nM); E (>1000 nM); and F (not tested). The letter codes for Dmax (oo) include: A (>90%); B (>70-90%); C (>50-70%); D ([…]); and F (not tested).

CN(C)C(=O)c1cc2c(F)c(C3CCCN(C(=O)CCn4cccn4)C3)cc(-c3ccc(N4CCN(CCc5ccc(C6CCC(=O)NC6=O)c(Cl)c5)CC4)cc3)c2o1 (single isomer, unassigned) [Example I-281]
IC50 ([1]; 30 minutes at room temperature): 100 to 1000 nM
DC50 (STAT6): 10 to 100 nM
Dmax (STAT6): 70 to 90%

CN(C)C(=O)c1cc2c(-c3ccc(C4CCN(c5ccc([C@@H]6CCC(=O)NC6=O)cc5F)CC4)cc3)cc(C3=CCCN(C(=O)CCn4cccn4)C3)c(F)c2[nH]1 (single isomer, unassigned) [Example I-742]
IC50 ([1]; HTRF binding): < 100 nM
DC50 (STAT6): < 1 nM
Dmax (STAT6): > 90%

CN(C)C(=O)c1cc2c(-c3ccc(C4CCN(c5ccc([C@H]6CCC(=O)NC6=O)cc5F)CC4)cc3)cc(C3=CCCN(C(=O)CCn4cccn4)C3)c(F)c2[nH]1 (single isomer, unassigned) [Example I-743]
IC50 ([1]; HTRF binding): < 100 nM
DC50 (STAT6): < 1 nM
Dmax (STAT6): > 90%

COc1cc(N2CCN(c3ccc(-c4cc(C5=CCCN(C(=O)CCn6cccn6)C5)c(F)c5[nH]c(C(=O)N(C)C)cc45)c(F)c3F)CC2)c(F)cc1N[C@@H]1CCC(=O)NC1=O (single isomer, unassigned) [Example I-744]
IC50 ([1]; HTRF binding): < 100 nM
DC50 (STAT6): < 1 nM
Dmax (STAT6): > 90%

COc1cc(N2CCN(c3ccc(-c4cc(C5=CCCN(C(=O)CCn6cccn6)C5)c(F)c5[nH]c(C(=O)N(C)C)cc45)c(F)c3F)CC2)c(F)cc1N[C@H]1CCC(=O)NC1=O (single isomer, unassigned) [Example I-745]
IC50 ([1]; HTRF binding): < 100 nM
DC50 (STAT6): < 1 nM
Dmax (STAT6): > 90%

Cc1cc(C2CCN(c3cccc4c3n(C)c(=O)n4[C@@H]3CCC(=O)NC3=O)CC2)ccc1-c1cc(C2=CCCN(C(=O)C(C)C)C2)c(F)c2[nH]c(C(=O)N(C)C)cc12 (single isomer, unassigned) [Example I-790]
IC50 ([1]; HTRF binding): 1000 to 10000 nM
DC50 (STAT6): 1 to 10 nM
Dmax (STAT6): > 90%

Cc1cc(C2CCN(c3cccc4c3n(C)c(=O)n4[C@H]3CCC(=O)NC3=O)CC2)ccc1-c1cc(C2=CCCN(C(=O)C(C)C)C2)c(F)c2[nH]c(C(=O)N(C)C)cc12 (single isomer, unassigned) [Example I-791]
IC50 ([1]; HTRF binding): 1000 to 10000 nM
DC50 (STAT6): < 1 nM
Dmax (STAT6): > 90%

COc1cc(N2CCC(c3ccc(-c4cc(C5=CCCN(C(=O)CCn6cccn6)C5)c(F)c5[nH]c(C(=O)N(C)C)cc45)c(OC(F)(F)F)c3)CC2)c(F)cc1N[C@@H]1CCC(=O)NC1=O (single isomer, unassigned) [Example I-792]
IC50 ([1]; HTRF binding): < 100 nM
DC50 (STAT6): 1 to 10 nM
Dmax (STAT6): 70 to 90%

COc1cc(N2CCC(c3ccc(-c4cc(C5=CCCN(C(=O)CCn6cccn6)C5)c(F)c5[nH]c(C(=O)N(C)C)cc45)c(OC(F)(F)F)c3)CC2)c(F)cc1N[C@H]1CCC(=O)NC1=O (single isomer, unassigned) [Example I-793]
IC50 ([1]; HTRF binding): < 100 nM
DC50 (STAT6): 1 to 10 nM
Dmax (STAT6): 70 to 90%

COc1cc(N2CCN(c3ccc(-c4cc(C5=CCCN(C(=O)CCn6cccn6)C5)c(F)c5[nH]c(C(=O)N(C)C)cc45)cc3)CC2)c(F)cc1N[C@@H]1CCC(=O)NC1=O (single isomer, unassigned) [Example I-794]
DC50 (STAT6): < 1 nM
Dmax (STAT6): 70 to 90%

COc1cc(N2CCN(c3ccc(-c4cc(C5=CCCN(C(=O)CCn6cccn6)C5)c(F)c5[nH]c(C(=O)N(C)C)cc45)cc3)CC2)c(F)cc1N[C@H]1CCC(=O)NC1=O (single isomer, unassigned) [Example I-795]
IC50 ([1]; HTRF binding): < 100 nM
DC50 (STAT6): < 1 nM
Dmax (STAT6): > 90%

CN(C)C(=O)c1cc2c(-c3ccc(C4CCN(c5ccc(N[C@H]6CCC(=O)NC6=O)cc5F)CC4)cc3)cc(C3=CCCN(C(=O)CCn4cccn4)C3)c(F)c2[nH]1 (single isomer, unassigned) [Example I-796]
IC50 ([1]; HTRF binding): < 100 nM
DC50 (STAT6): < 1 nM
Dmax (STAT6): 70 to 90%

CN(C)C(=O)c1cc2c(-c3ccc(C4CCN(c5ccc(N[C@@H]6CCC(=O)NC6=O)cc5F)CC4)cc3)cc(C3=CCCN(C(=O)CCn4cccn4)C3)c(F)c2[nH]1 (single isomer, unassigned) [Example I-797]
IC50 ([1]; HTRF binding): < 100 nM
DC50 (STAT6): 1 to 10 nM
Dmax (STAT6): 70 to 90%

CC(=O)N1CCC=C(c2cc(-c3ccc(C4CCN(c5cccc6c5n(C)c(=O)n6C5CCC(=O)NC5=O)CC4)cc3C)c3cc(C(=O)N(C)C)[nH]c3c2F)C1 (stereo not drawn) [Example I-455, 6-(1-Acetyl-1,2,5,6-tetrahydropyridin-3-yl)-4-(4-(1-(1-(2,6-dioxopiperidin-3-yl)-3-methyl-2-oxo-2,3-dihydro-1H-benzo[d]1734midazole-4-yl)piperidin-4-yl)-2-methylphenyl)-7-fluoro-N,N-dim ethyl-1H-indole-2-carboxamide]
IC50 ([1]; HTRF binding): 1000 to 10000 nM
DC50 (STAT6): < 1 nM
Dmax (STAT6): > 90%

COc1cc(N2CCN(CCOCC3CCN(c4ccnc(N5CC[C@@H]6[C@H]5CCCN6c5cccc(F)c5)c4)CC3)CC2)ccc1-c1cc(C2=CCCN(C(=O)CCn3ccnn3)C2)c(F)c2[nH]c(C(=O)N(C)C)cc12 [Example I-1049, 4-[4-(4-{2-[(1-{2-[(3aR,7aR)-4-(3-fluorophenyl)-hexahydro-2H-pyrrolo[3,2-b]pyridin-1-yl]pyridin-4-yl}piperidin-4-yl)methoxy]ethyl}piperazin-1-yl)-2-methoxyphenyl]-7-fluoro-N,N-dimethyl-6-{1-[3-(1,2,3-triazol-1-yl)propanoyl]-5,6-dihydro-2H-pyridin-3-yl}-1H-indole-2-carboxamide]
IC50 ([1]; HTRF binding): < 100 nM
